Values joined by “and” are separate entries in the source; they are usually repeats but may differ in a detail not shown here. Identical values can stand only once. Like-named read-outs stand apart in the source and are kept apart here.

Usually IC50 stands for the point on the concentration scale where inhibition reaches its midpoint. What is called inhibition is the percentage by which the read-out fell short of the control.

Series [1] deals with T1, soybean lipoxygenase (isozyme LOX-1) (Glycine max, UniProt P08170).
T1 construct: purchased Sigma Chemical, Co. (St. Louis, MO, USA)
T1 sequence (P08170 1-839): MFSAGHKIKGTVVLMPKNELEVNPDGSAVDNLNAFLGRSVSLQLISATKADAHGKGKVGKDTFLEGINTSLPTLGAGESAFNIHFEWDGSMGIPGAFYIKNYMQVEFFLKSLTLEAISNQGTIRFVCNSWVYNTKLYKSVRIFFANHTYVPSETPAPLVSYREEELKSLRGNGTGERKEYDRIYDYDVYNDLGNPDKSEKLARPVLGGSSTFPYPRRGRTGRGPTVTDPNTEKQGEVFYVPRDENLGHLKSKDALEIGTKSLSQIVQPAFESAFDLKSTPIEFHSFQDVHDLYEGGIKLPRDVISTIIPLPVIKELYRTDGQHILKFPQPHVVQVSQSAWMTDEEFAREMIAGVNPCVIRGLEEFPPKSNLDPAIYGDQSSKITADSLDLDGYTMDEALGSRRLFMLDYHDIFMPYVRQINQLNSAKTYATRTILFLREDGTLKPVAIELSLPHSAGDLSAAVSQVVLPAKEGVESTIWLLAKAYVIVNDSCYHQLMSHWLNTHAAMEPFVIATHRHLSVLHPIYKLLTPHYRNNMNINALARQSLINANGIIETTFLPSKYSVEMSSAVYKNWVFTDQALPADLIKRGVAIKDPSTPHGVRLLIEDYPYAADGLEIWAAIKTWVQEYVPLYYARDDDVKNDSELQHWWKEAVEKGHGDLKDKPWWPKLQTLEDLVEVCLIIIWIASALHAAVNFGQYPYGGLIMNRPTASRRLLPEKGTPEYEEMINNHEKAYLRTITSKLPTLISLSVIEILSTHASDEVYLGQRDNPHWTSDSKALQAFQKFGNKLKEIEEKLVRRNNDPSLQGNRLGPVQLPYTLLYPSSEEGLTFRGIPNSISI
The conditions noted are these: previously published, cited from earlier work; for IC50: read-out: LOX IC50 (μM) ± SEM.

Series [2] in a line: Inhibition of linoleic acid peroxidation induced by AAPH. As to conditions: anti-lipid peroxidation of linoleic acid, 100 μM.
Series [3] is described as follows: Experimental lipophilicity as RM values by RPTLC. The series is classed as physicochemical. The conditions noted are these: silica gel impregnated with liquid paraffin, methanol/water 77/23, 24 °C.
The target in another series is T2, eel AChE (Electrophorus electricus, UniProt O42275).
T2 construct: purchased Sigma-Aldrich Type VI-S
The series can be described thus: biochemical. The conditions noted are these: for inhibition at 100 µM: n.a. = no activity under the experimental conditions, read-out: AChE (% Inhibition at 100 μM) ± SEM; for IC50: acetylthiocholine substrate, read-out: AChE IC50 (μM) ± SEM.

Series [4] has as its target T1, soybean lipoxygenase (isozyme LOX-1). Briefly: Soybean lipoxygenase inhibition study. The series is classed as biochemical. As to conditions: for inhibition at 100 µM: read-out: LOX (% Inhibition at 100 μM) ± SEM, soybean lipoxygenase, 100 μM.
[5] abbreviates: soybean lipoxygenase, sodium linoleate substrate, read-out: LOX IC50 (μM) ± SEM.

T2 sequence (O42275 24-633): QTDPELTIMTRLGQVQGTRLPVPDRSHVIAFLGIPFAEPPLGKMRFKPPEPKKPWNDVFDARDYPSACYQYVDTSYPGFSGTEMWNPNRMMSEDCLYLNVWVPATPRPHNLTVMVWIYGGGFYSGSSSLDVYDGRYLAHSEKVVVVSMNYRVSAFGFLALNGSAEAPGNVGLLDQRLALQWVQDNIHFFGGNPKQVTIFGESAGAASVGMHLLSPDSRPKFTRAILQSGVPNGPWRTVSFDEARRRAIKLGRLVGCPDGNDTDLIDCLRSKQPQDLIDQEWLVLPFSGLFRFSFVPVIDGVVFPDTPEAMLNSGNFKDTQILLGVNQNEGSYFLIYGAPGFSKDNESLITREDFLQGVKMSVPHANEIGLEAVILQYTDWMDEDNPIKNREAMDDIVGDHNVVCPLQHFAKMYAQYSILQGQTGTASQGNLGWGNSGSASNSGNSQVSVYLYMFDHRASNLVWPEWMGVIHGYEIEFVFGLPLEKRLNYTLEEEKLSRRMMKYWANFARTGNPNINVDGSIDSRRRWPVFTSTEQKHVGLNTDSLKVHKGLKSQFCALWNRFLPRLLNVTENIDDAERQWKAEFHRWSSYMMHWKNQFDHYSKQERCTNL

Turning to `O=C1/C(=C/c2cccc3ccccc23)CNC/C1=C\c1cccc2ccccc12` [1a, (3E,5E)-3,5-bis(naphthalen-1-ylmethylene)piperidin-4-one], in series [1], the IC50 is 37 µM.
In the case of `O=C1/C(=C/c2cccs2)CNC/C1=C\c1cccs1` [1b, (3E,5E)-3,5-bis(thiophen-2-ylmethylene)piperidin-4-one], in series [1], the IC50 was 330 µM.
Take `O=C1/C(=C/c2c[nH]c3ccccc23)CNC/C1=C\c1c[nH]c2ccccc12` [1c, (3E,5E)-3,5-bis((1H-indol-3-yl)methylene)piperidin-4-one]: the IC50 in series [1] was 380 µM.
In the case of `O=C1/C(=C/c2ccc3[nH]ccc3c2)CNC/C1=C\c1ccc2[nH]ccc2c1` [1d, (3E,5E)-3,5-bis((1H-indol-5-yl)methylene)piperidin-4-one], the concentration for half-maximal inhibition (IC50) in series [1] is 410 µM.
For the compound `O=C1/C(=C/c2ccccc2)CNC/C1=C\c1ccccc1` [1g, (3E,5E)-3,5-dibenzylidenepiperidin-4-one], the “LOX (% Inhibition at 100 μM) ± SEM” value in series [1] was 8% ± 0.2.
On to `O=C1/C(=C/c2ccc(F)cc2)CNC/C1=C\c1ccc(F)cc1` [1j, (3E,5E)-3,5-bis(4-fluorobenzylidene)piperidin-4-one], for which the “AAPH Inhibition (%, at 100 μΜ)” value in series [2] stood at 36.2 ± 1.8%.
On to `O=C1/C(=C/c2cccc3ccccc23)CC/C1=C\c1cccc2ccccc12` [1k, (2E,5E)-2,5-bis(naphthalen-1-ylmethylene)cyclopentanone], for which the “RM ± S.D.” value in series [3] came to 0.872 ± 0.039. Further, in series [2], the “AAPH Inhibition (%, at 100 μΜ)” value was determined as 100 ± 2.2%. In addition, the inhibition at 100 µM on eel AChE is 36%. The IC50 in series [4] (setting [5]) was 14 µM.
`O=C1/C(=C/c2ccccc2)COC/C1=C\c1ccccc1` [1l, (3E,5E)-3,5-dibenzylidenedihydro-2H-pyran-4(3H)-one]: the “AAPH Inhibition (%, at 100 μΜ)” value in series [2] was found to be 42 ± 1.5%. The values for the inhibition at 100 µM (on eel AChE; in series [4]) were 25% and < 10%, respectively.
Turning to `O=C1/C(=C/c2cccc3ccccc23)COC/C1=C\c1cccc2ccccc12` [1m, (3E,5E)-3,5-bis(naphthalen-1-ylmethylene)dihydro-2H-pyran-4(3H)-one], the “RM ± S.D.” value in series [3] was 0.577 ± 0.027. Besides, the “AAPH Inhibition (%, at 100 μΜ)” value in series [2] is given as 100 ± 2.8%. For the same compound, the inhibition at 100 µM on eel AChE stood at 32%. The concentration for half-maximal inhibition (IC50) in series [4] (setting [5]) was 50.5 µM.
The corresponding values for `O=C1/C(=C/c2cccc3ccccc23)CSC/C1=C\c1cccc2ccccc12` [1n, (3Z,5Z)-3,5-bis(naphthalen-1-ylmethylene)dihydro-2H-thiopyran-4(3H)-one] are 0.131 ± 0.142, 100 ± 2.5%, 18% and 57.5 µM.
In the case of `S=C1/C(=C/c2ccccc2)CNC/C1=C\c1ccccc1` [1o, (3E,5E)-3,5-dibenzylidenepiperidine-4-thione], in series [3], the “RM ± S.D.” value is listed as −0.848 ± 0.19. In series [2], the “AAPH Inhibition (%, at 100 μΜ)” value worked out at 8 ± 0.01%. Further, in series [4], the inhibition at 100 µM was < 10%. In series [4] (setting [5]), the IC50 came out at 10 µM.
Consider `S=C1/C(=C/c2cccc3ccccc23)CNC/C1=C\c1cccc2ccccc12` [1p, (3E,5E)-3,5-bis(naphthalen-1-ylmethylene)piperidine-4-thione], for which the “RM ± S.D.” value in series [3] is recorded as −0.679 ± 0.035. Besides, the “AAPH Inhibition (%, at 100 μΜ)” value in series [2] worked out at 100 ± 3.3%. Besides, the inhibition at 100 µM on eel AChE turned out to be 26.6%. Also, the concentration for half-maximal inhibition (IC50) in series [4] (setting [5]) worked out at 35 µM.
For the compound `O=C1/C(=C/c2cc3ccccc3o2)CNC/C1=C\c1cc2ccccc2o1` [1q, (3E,5E)-3,5-bis(benzofuran-2-ylmethylene)piperidin-4-one], the “RM ± S.D.” value in series [3] is recorded as −0.019 ± 0.143. Further, in series [2], the “AAPH Inhibition (%, at 100 μΜ)” value amounted to 13 ± 0.2%. In addition, the inhibition at 100 µM is 16.5% on eel AChE and 3% in series [4].
On to `O=C(O)/C=C/c1ccccc1` [2a], for which the “RM ± S.D.” value in series [3] was −0.485 ± 0.044. Also, the “AAPH Inhibition (%, at 100 μΜ)” value in series [2] is reported as 78 ±1.6%. In addition, the inhibition at 100 µM on eel AChE was found to be 4.6%.
For `O=C(O)/C=C/c1cccc2ccccc12` [2b], the “RM ± S.D.” value in series [3] is −0.576 ± 0.077. In addition, the “AAPH Inhibition (%, at 100 μΜ)” value in series [2] worked out at 78 ± 0.7%. In series [4], this compound gave an IC50 of 27.5 µM.
Consider `O=C1/C(=C/c2cccc3ccccc23)CN(C(=O)C=Cc2ccccc2)C/C1=C\c1cccc2ccccc12` [3a, (3E,5E)-1-cinnamoyl-3,5-bis(naphthalen-1-ylmethylene)piperidin-4-one], for which the “RM ± S.D.” value in series [3] is recorded as 0.599 ± 0.024. Besides, the “AAPH Inhibition (%, at 100 μΜ)” value in series [2] is reported as 91 ± 1.9%. The IC50 at eel AChE amounted to 85 µM; in series [4] (setting [5]), 50 µM.
On to `O=C1/C(=C/c2ccccc2)CN(C(=O)/C=C/c2cccc3ccccc23)C/C1=C\c1ccccc1` [3b, (3E,5E)-3,5-dibenzylidene-1-((E)-3-(naphthalen-1-yl)acryloyl)piperidin-4-one], for which the “RM ± S.D.” value in series [3] came out at 0.509 ± 0.062. Besides, in series [2], the “AAPH Inhibition (%, at 100 μΜ)” value is on record as 90 ± 2.8%. In addition, on eel AChE, the inhibition at 100 µM was 17%. Besides, the IC50 in series [4] (setting [5]) is 55 µM.
Regarding `O=C1/C(=C/c2cccc3ccccc23)CN(C(=O)/C=C/c2cccc3ccccc23)C/C1=C\c1cccc2ccccc12` [3c, (3E,5E)-1-((E)-3-(naphthalen-1-yl)acryloyl)-3,5-bis(naphthalen-1-ylmethylene)piperidin-4-one], in series [3], the “RM ± S.D.” value was −0.658 and −0.658 ± 0.061. Moreover, in series [2], the “AAPH Inhibition (%, at 100 μΜ)” value was determined as 88 ± 2.0%. At eel AChE, the inhibition at 100 µM is 29%. In addition, the concentration for half-maximal inhibition (IC50) in series [4] (setting [5]) was determined as 37.5 µM.
For the compound `O=C1/C(=C/c2ccc(F)cc2)CN(C(=O)C=Cc2ccccc2)C/C1=C\c1ccc(F)cc1` [3d, (3E,5E)-1-cinnamoyl-3,5-bis(4-fluorobenzylidene)piperidin-4-one], the “RM ± S.D.” value in series [3] worked out at 0.237 ± 0.06. The “AAPH Inhibition (%, at 100 μΜ)” value in series [2] was 84 ± 1.7%. Moreover, at eel AChE, the inhibition at 100 µM was 31%. In series [4] (setting [5]), the IC50 was 63.5 µM.
Regarding `O=C1/C(=C/c2ccc(F)cc2)CN(C(=O)/C=C/c2cccc3ccccc23)C/C1=C\c1ccc(F)cc1` [3f, (3E,5E)-3,5-bis(4-fluorobenzylidene)-1-((E)-3-(naphthalen-1-yl)acryloyl)piperidin-4-one], the “RM ± S.D.” value in series [3] is 0.564 ± 0.045. The “AAPH Inhibition (%, at 100 μΜ)” value in series [2] was 90 ± 2.4%. In addition, the inhibition at 100 µM at eel AChE amounted to 24%. Also, the IC50 in series [4] (setting [5]) came to 55 µM.
Take `O=C1/C(=C/c2ccccc2)CN(C(=O)C=Cc2ccccc2)C/C1=C\c1ccccc1` [3g, (3E,5E)-3,5-dibenzylidene-1-cinnamoylpiperidin-4-one]: the “RM ± S.D.” value in series [3] was 0.235 ± 0.039. Besides, the “AAPH Inhibition (%, at 100 μΜ)” value in series [2] came to 53 ± 1.6%. For the same compound, the IC50 on eel AChE was determined as 100 µM; in series [4], 82 µM.
With `O=C1/C(=C/c2cccc3ccccc23)CN(C(=O)/C=C/c2ccc(O)c(O)c2)C/C1=C\c1cccc2ccccc12` [3h, (3E,5E)-1-((E)-3-(3,4-dihydroxyphenyl)acryloyl)-3,5-bis(naphthalen-1-ylmethylene)piperidin-4-one], the “RM ± S.D.” value in series [3] is −0.657 and −0.657 ± 0.013. Further, the “AAPH Inhibition (%, at 100 μΜ)” value in series [2] came to 93 ± 2.2%. Besides, on eel AChE, the inhibition at 100 µM fell in the range of 14 to 34%. Also, the IC50 in series [4] (setting [5]) came out at 34 µM.
For the compound `COc1cc(/C=C/C(=O)CC(=O)/C=C/c2ccc(O)c(OC)c2)ccc1O` [Curcumin, reference compound], the “RM ± S.D.” value in series [3] is listed as 0.175 ± 0.029. Moreover, the inhibition at 100 µM in series [4] amounted to 38%.
Take `Cc1c(C)c2c(c(C)c1O)CCC(C)(C(=O)O)O2` (centres unmarked) [Trolox, reference compound]: in series [2], the “AAPH Inhibition (%, at 100 μΜ)” value is 92 ± 2.1%.
With “(3E,5E)-3,5-bis((1H-imidazol-2-yl)methylene)piperidin-4-one [1f]”, in series [1], the “LOX (% Inhibition at 100 μM) ± SEM” value was 36% ± 0.9.

The values are drawn from paper PMC7662280 (Molecules, 2020).
